Source: ChEMBL document CHEMBL4311992, “Discovery of 3-(((9H-purin-6-yl)amino)methyl)-4,6-dimethylpyridin-2(1H)-one derivatives as novel tubulin polymerization inhibitors for treatment of cancer” (Eur J Med Chem, 2019)
Calls of active or inactive are those of the source. No cut-off for these calls is given here.

Key:
Homo sapiens [1] = organism: Homo sapiens; assay: Inhibition of recombinant human MARK1 T20S mutant (2 to end residues) assessed as residual activity at 10 uM using KKKVSRSGLYRSPSMPENLNRPR as substrate measured after 40 mins in presence of [gamma33P]ATP by scintillation counting method
SW-620 = assay: Induction of apoptosis in human SW620 cells assessed as decrease in Bcl2 expression up to 200 nM measured after 48 hrs by Western blot analysis; format: functional, cell-based
[2] = test system: Tyrosine-protein kinase ABL1 (Homo sapiens), P00519 [Q252H]; assay: Inhibition of recombinant human ABL Q252H mutant (27 to end residues) assessed as residual activity at 10 uM using EAIYAAPFAKKK as substrate measured after 40 mins in presence of [gamma33P]ATP by scintillation counting method
[3] = molecular target: T1, Cyclin-dependent kinase 5/CDK5 activator 1 (Homo sapiens) (UniProt Q00535+Q15078); assay: Inhibition of recombinant full-length human CDK5/p35 assessed as residual activity at 10 uM using histone H1 as substrate measured after 40 mins in presence of [gamma33P]ATP by scintillation counting method; format: protein-complex assay
[4] = molecular target: SRSF protein kinase 2 (Homo sapiens) (UniProt P78362); assay: Inhibition of human SRPK2 (46 to end residues) using RSRSRSRSRSRSRSR as substrate measured after 40 mins in presence of [gamma33P]ATP by scintillation counting method; parameters: scale not given: the % may be the effect or the level left
[5] = molecular target: Tyrosine-protein kinase ZAP-70 (Homo sapiens) (UniProt P43403); assay: Inhibition of recombinant full-length human ZAP70 assessed as residual activity at 10 uM using poly(Glu, Tyr) 4:1 as substrate measured after 40 mins in presence of [gamma33P]ATP by scintillation counting method
[6] = molecular target: CDK17/Cyclin-Y (Homo sapiens) (UniProt Q00537+Q8ND76); assay: Inhibition of human CDK17/cyclinY assessed as residual activity at 10 uM using PKSPKARKKL as substrate measured after 120 mins in presence of [gamma33P]ATP by scintillation counting method; format: protein-complex assay
[7] = Toxicity in Balb/c mouse lung at 80 mg/kg after 4 weeks by hematoxylin and eosin staining-based assay; format: organism-based; conditions: in vivo, 672 h
Homo sapiens [8] = organism: Homo sapiens; assay: Inhibition of recombinant full-length human JNK2alpha2 S51N mutant assessed as residual activity at 10 uM using ATF2 as substrate measured after 40 mins in presence of [gamma33P]ATP by scintillation counting method
[9] = molecular target: Fibroblast growth factor receptor 4 (Homo sapiens) (UniProt P22455); assay: Inhibition of recombinant human FGFR4 (442 to 755 residues) assessed as residual activity at 10 uM using poly(Glu, Tyr) 4:1 as substrate measured after 40 mins in presence of [gamma33P]ATP by scintillation counting method
[10] = molecular target: Muscle, skeletal receptor tyrosine-protein kinase (Homo sapiens) (UniProt O15146); assay: Inhibition of recombinant human MuSK (530 to end residues) assessed as residual activity at 10 uM using myelin basic protein as substrate measured after 40 mins in presence of [gamma33P]ATP by scintillation counting method
Mus musculus = organism: Mus musculus; assay: Inhibition of recombinant mouse ARG M982V/A562 mutant (27 to end residues) assessed as residual activity at 10 uM using EAIYAAPFAKKK as substrate measured after 40 mins in presence of [gamma33P]ATP by scintillation counting method
[11] = Toxicity in nude BALB/c mouse assessed as change in albumin level at 40 to 80 mg/kg, po once daily for 4 weeks measured post-last dose; format: organism-based; conditions: in vivo, 672 h
HCT-116 [12] = assay: Induction of apoptosis in human HCT116 cells assessed as necrotic cells at 25 nM measured after 48 hrs by Annexin V-FITC/propidium iodide staining-based flow cytometry (reference value: 1.16%); format: functional
[13] = molecular target: Mitogen-activated protein kinase kinase kinase kinase 2 (Homo sapiens) (UniProt Q12851); assay: Inhibition of recombinant human GCK assessed as residual activity at 10 uM using myelin basic protein as substrate measured after 40 mins in presence of [gamma33P]ATP by scintillation counting method
[14] = molecular target: AP2-associated protein kinase 1 (Homo sapiens) (UniProt Q2M2I8); assay: Inhibition of human AAK1 assessed as residual activity at 10 uM using peptide substrate measured after 120 mins in presence of [gamma33P]ATP by scintillation counting method
[15] = molecular target: T1, Cyclin-dependent kinase 5/CDK5 activator 1 (Homo sapiens); assay: Inhibition of recombinant full-length human CDK5/p25 assessed as residual activity at 10 uM using histone H1 as substrate measured after 40 mins in presence of [gamma33P]ATP by scintillation counting method; format: protein-complex assay
[16] = test system: Epidermal growth factor receptor (Homo sapiens), P00533 [L858R]; assay: Inhibition of recombinant human EGFR L858R mutant (696 to end residues) assessed as residual activity at 10 uM using poly(Glu, Tyr) 4:1 as substrate measured after 40 mins in presence of [gamma33P]ATP by scintillation counting method
[17] = molecular target: Serine/threonine-protein kinase SIK1 (Homo sapiens) (UniProt P57059); assay: Inhibition of human SIK (1 to 281 residues) using AMARAASAAALARRR as substrate measured after 40 mins in presence of [gamma33P]ATP by scintillation counting method; parameters: scale not given: the % may be the effect or the level left
HCT-116 [18] = assay: Antitumor activity against human HCT116 cells xenografted in nude BALB/c mouse assessed as reduction in tumor weight at 40 mg/kg, po administered once daily for 4 weeks measured every 3 days during compound dosing; format: functional, organism-based
[19] = molecular target: Ephrin type-A receptor 7 (Homo sapiens) (UniProt Q15375); assay: Inhibition of recombinant human EphA7 (613 to 909 residues) assessed as residual activity at 10 uM using KTFCGTPEYLAPEVRREPRILSEEEQEMFRDFDYIADWC as substrate measured after 40 mins in presence of [gamma33P]ATP by scintillation counting method
[20] = test system: PI3-kinase p110-alpha/p85-alpha (Homo sapiens), P27986+P42336 [E542K]; assay: Inhibition of recombinant full-length human PI3K p110alpha/p85alpha E542K mutant assessed as residual activity at 10 uM using phosphatidylinositol-4, 5-bisphosphate as substrate measured after 40 mins by fluorescence assay; format: protein-complex assay
SW480 = assay: Antiproliferative activity against human SW480 cells assessed as reduction in cell viability after 72 hrs by MTT assay; format: functional, cell-based; conditions: SW480, 72 h
[21] = molecular target: Inhibitor of nuclear factor kappa-B kinase subunit alpha (Homo sapiens) (UniProt O15111); assay: Inhibition of recombinant full-length human IKKalpha ([…]) assessed as residual activity at 10 uM using peptide substrate measured after 40 mins in presence of [gamma33P]ATP by scintillation counting method
[22] = molecular target: Tyrosine-protein kinase ABL2 (Homo sapiens) (UniProt P42684); assay: Inhibition of recombinant human ARG (38 to end residues) assessed as residual activity at 10 uM using EAIYAAPFAKKK as substrate measured after 40 mins in presence of [gamma33P]ATP by scintillation counting method

T1 sequence (Q00535 whole entry): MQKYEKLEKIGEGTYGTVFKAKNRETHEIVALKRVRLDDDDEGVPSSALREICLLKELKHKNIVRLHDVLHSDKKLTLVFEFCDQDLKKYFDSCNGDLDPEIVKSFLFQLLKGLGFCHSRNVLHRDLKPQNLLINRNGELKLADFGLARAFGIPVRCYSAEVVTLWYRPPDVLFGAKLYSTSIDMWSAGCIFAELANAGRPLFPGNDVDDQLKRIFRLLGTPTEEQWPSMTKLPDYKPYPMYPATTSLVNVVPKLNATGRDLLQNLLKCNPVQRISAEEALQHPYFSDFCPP
T1 sequence (Q15078 99-307 partner limits assumed): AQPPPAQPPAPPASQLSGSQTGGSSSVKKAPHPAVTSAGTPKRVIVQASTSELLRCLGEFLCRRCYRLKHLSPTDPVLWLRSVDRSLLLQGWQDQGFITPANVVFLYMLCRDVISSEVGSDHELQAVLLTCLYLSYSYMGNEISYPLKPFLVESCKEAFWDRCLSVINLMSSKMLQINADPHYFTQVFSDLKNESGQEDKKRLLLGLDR
Ephrin type-A receptor 7 (Homo sapiens), sequence (Q15375 28-998 limits assumed): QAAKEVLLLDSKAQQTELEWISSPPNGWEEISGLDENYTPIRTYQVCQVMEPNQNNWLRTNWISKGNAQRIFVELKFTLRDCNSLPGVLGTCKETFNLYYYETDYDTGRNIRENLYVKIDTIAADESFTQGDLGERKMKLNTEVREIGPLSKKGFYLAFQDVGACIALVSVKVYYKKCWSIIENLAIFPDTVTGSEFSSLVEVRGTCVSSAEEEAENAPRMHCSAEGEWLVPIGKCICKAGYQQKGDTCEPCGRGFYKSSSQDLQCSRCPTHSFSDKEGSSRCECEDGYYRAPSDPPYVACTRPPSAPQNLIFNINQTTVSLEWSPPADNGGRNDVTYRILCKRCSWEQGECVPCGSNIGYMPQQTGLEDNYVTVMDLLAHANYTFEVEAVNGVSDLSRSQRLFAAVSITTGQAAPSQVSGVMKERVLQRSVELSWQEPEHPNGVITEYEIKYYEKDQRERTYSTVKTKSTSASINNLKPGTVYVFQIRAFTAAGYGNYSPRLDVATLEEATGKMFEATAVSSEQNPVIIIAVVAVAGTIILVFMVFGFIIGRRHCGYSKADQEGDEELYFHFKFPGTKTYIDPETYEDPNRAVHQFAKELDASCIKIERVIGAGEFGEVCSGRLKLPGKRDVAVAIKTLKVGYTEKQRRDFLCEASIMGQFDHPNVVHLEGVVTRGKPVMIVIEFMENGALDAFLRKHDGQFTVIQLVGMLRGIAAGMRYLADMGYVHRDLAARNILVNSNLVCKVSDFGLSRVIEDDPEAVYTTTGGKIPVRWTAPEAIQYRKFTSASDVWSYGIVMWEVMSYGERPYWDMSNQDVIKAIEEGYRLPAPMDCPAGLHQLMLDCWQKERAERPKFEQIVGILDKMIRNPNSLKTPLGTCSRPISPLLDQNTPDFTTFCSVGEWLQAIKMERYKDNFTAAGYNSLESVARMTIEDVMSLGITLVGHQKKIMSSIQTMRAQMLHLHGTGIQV
Muscle, skeletal receptor tyrosine-protein kinase (Homo sapiens), sequence (O15146 whole entry): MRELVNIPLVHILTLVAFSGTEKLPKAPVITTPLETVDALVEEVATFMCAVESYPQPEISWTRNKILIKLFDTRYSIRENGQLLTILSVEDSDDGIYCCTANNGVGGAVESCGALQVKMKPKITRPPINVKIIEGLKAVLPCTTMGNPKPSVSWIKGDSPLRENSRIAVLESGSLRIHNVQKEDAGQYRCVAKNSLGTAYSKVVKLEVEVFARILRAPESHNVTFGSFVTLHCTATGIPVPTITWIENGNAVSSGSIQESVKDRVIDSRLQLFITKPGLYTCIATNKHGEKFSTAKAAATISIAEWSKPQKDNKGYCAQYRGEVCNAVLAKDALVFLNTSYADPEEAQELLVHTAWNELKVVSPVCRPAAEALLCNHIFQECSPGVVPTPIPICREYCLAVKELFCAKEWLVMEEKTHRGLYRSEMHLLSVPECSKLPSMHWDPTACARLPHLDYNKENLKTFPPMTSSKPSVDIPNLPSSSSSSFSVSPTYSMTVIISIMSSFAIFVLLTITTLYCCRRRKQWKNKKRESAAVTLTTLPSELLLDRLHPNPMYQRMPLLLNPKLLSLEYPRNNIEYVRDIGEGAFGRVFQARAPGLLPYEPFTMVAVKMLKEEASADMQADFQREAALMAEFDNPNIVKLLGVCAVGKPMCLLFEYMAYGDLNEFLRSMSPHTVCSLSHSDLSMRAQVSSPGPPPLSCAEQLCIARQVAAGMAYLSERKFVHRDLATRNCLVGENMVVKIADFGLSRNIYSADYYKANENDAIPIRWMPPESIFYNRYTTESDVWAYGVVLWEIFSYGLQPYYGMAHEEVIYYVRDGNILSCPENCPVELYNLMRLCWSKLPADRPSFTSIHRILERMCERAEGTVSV
Mitogen-activated protein kinase kinase kinase kinase 2 (Homo sapiens), sequence (Q12851 whole entry): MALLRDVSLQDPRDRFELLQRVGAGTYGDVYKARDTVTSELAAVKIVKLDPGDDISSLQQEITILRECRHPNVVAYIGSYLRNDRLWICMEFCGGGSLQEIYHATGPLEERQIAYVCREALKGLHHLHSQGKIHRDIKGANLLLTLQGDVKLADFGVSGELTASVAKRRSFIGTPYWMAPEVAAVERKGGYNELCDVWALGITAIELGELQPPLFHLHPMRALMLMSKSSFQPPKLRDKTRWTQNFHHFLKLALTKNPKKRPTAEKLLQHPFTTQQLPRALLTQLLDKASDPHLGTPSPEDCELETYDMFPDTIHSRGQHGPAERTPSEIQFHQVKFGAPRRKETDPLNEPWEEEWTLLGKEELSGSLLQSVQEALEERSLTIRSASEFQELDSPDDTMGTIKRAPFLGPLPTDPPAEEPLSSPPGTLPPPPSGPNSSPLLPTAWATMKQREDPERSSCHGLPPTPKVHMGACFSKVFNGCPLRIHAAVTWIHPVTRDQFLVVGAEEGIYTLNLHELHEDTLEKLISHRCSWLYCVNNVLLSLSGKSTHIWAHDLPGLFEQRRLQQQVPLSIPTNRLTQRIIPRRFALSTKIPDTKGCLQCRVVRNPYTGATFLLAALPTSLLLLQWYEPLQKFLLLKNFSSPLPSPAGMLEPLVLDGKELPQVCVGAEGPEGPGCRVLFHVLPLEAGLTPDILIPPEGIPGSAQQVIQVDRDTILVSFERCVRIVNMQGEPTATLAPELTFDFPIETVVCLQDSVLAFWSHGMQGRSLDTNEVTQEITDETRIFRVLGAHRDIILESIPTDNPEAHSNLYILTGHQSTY
Inhibitor of nuclear factor kappa-B kinase subunit alpha (Homo sapiens), sequence (O15111 whole entry): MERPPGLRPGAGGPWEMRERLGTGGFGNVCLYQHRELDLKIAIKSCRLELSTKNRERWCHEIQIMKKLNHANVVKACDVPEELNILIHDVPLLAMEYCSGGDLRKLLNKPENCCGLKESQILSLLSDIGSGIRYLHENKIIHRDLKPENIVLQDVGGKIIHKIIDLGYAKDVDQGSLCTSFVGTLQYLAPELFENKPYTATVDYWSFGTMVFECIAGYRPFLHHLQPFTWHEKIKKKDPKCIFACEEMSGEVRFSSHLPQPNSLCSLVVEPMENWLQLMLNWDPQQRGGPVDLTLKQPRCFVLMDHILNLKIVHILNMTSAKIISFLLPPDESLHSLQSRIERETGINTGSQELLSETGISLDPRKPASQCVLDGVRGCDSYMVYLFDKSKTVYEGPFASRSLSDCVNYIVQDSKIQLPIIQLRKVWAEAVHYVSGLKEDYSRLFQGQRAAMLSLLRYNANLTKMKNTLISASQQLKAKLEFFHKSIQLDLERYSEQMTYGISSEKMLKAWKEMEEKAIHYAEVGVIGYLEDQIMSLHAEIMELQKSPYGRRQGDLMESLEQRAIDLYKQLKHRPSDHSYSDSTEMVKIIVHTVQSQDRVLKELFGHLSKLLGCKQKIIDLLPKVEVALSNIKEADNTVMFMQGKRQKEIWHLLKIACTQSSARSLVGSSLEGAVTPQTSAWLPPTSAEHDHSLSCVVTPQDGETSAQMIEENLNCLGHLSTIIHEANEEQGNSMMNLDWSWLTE
CDK17/Cyclin-Y (Homo sapiens), sequence (Q00537 whole entry): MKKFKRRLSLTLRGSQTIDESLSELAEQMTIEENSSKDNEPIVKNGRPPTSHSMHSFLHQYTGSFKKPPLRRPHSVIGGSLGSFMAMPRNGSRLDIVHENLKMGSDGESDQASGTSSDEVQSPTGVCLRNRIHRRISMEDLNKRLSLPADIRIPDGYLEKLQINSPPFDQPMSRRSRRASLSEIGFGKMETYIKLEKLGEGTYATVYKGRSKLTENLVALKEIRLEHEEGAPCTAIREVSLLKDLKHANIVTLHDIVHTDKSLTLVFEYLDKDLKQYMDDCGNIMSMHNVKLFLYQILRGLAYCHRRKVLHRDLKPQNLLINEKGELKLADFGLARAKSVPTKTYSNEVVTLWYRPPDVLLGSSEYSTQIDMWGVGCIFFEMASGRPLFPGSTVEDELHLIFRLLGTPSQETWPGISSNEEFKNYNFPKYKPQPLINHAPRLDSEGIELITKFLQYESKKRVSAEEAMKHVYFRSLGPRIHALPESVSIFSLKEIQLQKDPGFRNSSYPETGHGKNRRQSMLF
CDK17/Cyclin-Y (Homo sapiens), sequence (Q8ND76 2-341 partner limits assumed): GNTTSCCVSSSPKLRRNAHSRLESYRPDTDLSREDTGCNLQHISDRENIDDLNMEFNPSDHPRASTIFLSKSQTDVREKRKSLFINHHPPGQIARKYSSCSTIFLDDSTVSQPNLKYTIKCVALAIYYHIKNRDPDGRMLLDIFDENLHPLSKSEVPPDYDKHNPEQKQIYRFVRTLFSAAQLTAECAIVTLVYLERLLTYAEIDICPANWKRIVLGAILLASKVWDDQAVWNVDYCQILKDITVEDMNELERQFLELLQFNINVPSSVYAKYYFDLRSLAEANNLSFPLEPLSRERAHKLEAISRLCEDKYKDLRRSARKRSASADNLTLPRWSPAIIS

Cc1cc(C)c(CNc2nc(Cl)nc3c2ncn3C2CCCC2)c(=O)[nH]1
Activity (Homo sapiens [1]): 112%
Activity (SW-620): Active
Activity [2]: 106%
Activity [3]: 108%
Activity [4]: 106%
Activity [5]: 95.5%
Activity [6]: 102%
Activity [7]: Non-Toxic
Activity (Homo sapiens [8]): 103%
Activity [9]: 100%
Activity [10]: 114%
Activity (Mus musculus): 106%
Activity [11]: Non-Toxic
Activity (HCT-116 [12]): 0.846%
Activity [13]: 100%
Activity [14]: 105%
Activity [15]: 94%
Activity [16]: 104%
Activity [17]: 104%
Activity (HCT-116 [18]): Active
Activity [19]: 98.5%
Activity [20]: 97.5%
IC50 (SW480): 64.5 nM
Activity [21]: 88.5%
Activity [22]: 115%
